Reference: ChEMBL document CHEMBL1201862, “PubChem BioAssay data set” (2004)
“And” between values parts separate entries of the source, which are not always exact repeats. Identical values can stand only once. The source made the active and inactive calls. Cut-off read from the data, not from the text of the source, for most assays here: actives have a measured EC50 and inactives only a lower limit.

Assays:
[1] = target: Cytochrome P450 3A4 (Homo sapiens, UniProt P08684);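 note: CYP3A4 tested as one member of a cytochrome P450 panel screen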
Chain of Cytochrome P450 3A4 (P08684 whole entry): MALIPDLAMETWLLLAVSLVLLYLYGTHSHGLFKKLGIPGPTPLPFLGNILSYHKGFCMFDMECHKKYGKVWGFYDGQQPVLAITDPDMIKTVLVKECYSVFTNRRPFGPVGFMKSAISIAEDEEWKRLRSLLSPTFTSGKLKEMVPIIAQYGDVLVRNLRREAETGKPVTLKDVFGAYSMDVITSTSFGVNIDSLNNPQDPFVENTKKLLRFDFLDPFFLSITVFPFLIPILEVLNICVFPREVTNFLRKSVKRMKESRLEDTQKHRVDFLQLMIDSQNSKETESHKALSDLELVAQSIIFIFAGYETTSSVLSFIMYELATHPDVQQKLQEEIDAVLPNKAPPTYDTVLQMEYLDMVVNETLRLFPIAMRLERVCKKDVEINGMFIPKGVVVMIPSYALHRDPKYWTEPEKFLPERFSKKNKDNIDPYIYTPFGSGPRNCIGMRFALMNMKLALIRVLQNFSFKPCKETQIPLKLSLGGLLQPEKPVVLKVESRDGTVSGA

[2] = target: Cytochrome P450 2C9 (Homo sapiens, UniProt P11712)
Chain of Cytochrome P450 2C9 (P11712 whole entry): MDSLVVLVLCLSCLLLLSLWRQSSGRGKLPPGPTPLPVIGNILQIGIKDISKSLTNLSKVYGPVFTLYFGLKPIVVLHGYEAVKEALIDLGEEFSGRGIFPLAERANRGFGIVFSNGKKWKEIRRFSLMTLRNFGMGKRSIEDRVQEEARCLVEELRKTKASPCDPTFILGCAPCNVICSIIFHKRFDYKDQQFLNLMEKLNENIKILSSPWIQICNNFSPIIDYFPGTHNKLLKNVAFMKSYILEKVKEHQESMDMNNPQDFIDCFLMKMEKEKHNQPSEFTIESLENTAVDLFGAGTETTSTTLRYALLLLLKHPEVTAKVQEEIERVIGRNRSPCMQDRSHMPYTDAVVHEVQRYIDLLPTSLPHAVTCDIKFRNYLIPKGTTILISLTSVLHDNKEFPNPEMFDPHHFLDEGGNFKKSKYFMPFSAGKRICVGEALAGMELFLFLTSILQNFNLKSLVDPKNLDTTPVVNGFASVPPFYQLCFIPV

[3] = target: T1, Heat shock factor protein 1 (Mus musculus, UniProt P38532); assay: decrease of HSF1-responsive luciferase luminescence – cell-based, NIH3T3, dose retest, confirmation (AID 2382); type: functional;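 note: NIH3T3 fibroblasts with HSF1-driven luciferase reporter stressed by proteasome inhibitor MG132; luminescence from HSF1-driven luciferase expression after 8 hours of MG132 stress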
T1 sequence (P38532 whole entry): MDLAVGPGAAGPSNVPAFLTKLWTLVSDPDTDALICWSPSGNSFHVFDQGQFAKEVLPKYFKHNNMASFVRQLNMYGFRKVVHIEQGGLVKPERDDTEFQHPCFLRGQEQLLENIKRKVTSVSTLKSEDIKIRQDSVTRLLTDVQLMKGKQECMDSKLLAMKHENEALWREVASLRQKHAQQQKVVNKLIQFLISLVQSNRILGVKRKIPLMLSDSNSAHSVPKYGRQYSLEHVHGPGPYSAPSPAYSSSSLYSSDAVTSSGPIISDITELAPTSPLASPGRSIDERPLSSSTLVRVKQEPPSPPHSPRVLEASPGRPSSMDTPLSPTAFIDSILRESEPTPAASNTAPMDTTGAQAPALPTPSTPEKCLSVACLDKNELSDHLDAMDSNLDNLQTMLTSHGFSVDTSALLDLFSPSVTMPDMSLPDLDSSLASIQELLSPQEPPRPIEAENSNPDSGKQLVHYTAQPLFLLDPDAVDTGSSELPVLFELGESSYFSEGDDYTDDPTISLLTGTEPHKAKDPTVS

[4] = Trypanosoma cruzi growth suppression in host cells – NIH3T3 host cells, beta-gal luminescence, confirmation (AID 2044); type: functional, cell-based;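 note: intracellular parasites grown in NIH/3T3 mouse fibroblasts as host cells; luminescent beta-galactosidase reporter signal from transgenic T. cruzi replicating inside host cells; inhibitors lower the luminescence signal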
[5] = NIH3T3 cell viability loss – ATP luminescence, mouse fibroblasts, counter-screen, dose response (AID 2010); type: functional, cell-based;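 note: cells exposed to compound for about 90 hours before reading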
[6] = target: T2, Corticotropin-releasing factor receptor 2/Corticotropin-releasing factor-binding protein (Homo sapiens, UniProt P24387+Q13324); assay: activators of CRF receptor 2 with binding protein – uHTS hits, confirmation (AID 602473); type: functional; conditions: read-out: EC50_Mean
T2 sequence (Q13324 whole entry): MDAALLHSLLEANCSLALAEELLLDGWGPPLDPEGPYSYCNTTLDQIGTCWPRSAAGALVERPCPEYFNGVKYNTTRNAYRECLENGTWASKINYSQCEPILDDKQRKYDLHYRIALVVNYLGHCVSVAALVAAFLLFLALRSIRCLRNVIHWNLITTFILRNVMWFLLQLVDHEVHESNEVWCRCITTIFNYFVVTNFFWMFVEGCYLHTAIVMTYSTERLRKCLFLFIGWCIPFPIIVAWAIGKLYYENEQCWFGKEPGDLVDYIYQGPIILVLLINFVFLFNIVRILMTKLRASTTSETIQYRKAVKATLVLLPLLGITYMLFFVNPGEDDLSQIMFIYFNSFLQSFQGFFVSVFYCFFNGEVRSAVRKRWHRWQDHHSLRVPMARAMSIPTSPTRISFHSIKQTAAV
T2 sequence (P24387 whole entry): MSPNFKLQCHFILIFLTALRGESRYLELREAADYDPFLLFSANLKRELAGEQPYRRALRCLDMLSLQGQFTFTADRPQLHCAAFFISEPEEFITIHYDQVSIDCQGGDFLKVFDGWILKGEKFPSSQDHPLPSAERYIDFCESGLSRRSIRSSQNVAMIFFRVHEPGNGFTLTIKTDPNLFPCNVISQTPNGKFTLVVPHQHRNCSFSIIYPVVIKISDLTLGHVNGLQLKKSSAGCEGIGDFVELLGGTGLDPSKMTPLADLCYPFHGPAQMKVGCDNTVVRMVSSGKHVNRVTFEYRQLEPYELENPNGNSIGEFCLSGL

[7] = tested on: Streptococcus sp. 'group A'; assay: Streptococcus pyogenes SK(-)GAS viability under kanamycin – luminescence, BacTiterGlo, confirmation, counter-screen for streptokinase expression inhibitor project, dose response (AID 1900); type: functional, organism-based
[8] = target: T3, Streptokinase A (Streptococcus pyogenes serotype M1, UniProt P10520); assay: viability-normalized secreted streptokinase activity reduction – plasminogen activation absorbance, OD405, dose response (AID 1914); type: functional, Streptococcus pyogenes M1 GAS;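 note: secreted streptokinase activity via plasminogen activation per viability signal from cell pellet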
T3 sequence (P10520 whole entry): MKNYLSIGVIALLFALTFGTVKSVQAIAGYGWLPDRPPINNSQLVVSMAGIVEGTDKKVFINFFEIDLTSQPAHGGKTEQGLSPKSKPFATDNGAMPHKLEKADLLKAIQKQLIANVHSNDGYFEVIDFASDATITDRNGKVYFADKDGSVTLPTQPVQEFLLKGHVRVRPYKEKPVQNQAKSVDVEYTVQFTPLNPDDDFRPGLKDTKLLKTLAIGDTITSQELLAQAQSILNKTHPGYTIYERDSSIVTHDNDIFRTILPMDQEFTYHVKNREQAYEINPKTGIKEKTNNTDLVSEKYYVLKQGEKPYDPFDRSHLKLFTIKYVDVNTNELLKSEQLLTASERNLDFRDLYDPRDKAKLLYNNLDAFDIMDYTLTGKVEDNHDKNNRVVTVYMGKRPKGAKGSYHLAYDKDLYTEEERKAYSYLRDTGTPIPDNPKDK

[9] = tested on: Streptococcus; assay: GAS UMAA2166 growth inhibition – luminescence, BacTiterGlo, counter-screen for streptokinase expression inhibitor project, dose response (AID 1915); type: functional, organism-based;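 note: potency for reduction of bacterial viability or growth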

O=c1c(-c2cc(F)cc(F)c2)nc2cnc(Oc3ccccc3)nc2n1C[C@H]1CCCO1
AC50 [1]: 15.8 µM (inconclusive)

O=C(NCCN1CCCCC1)c1ccc(I)cc1
AC50 [2]: 31.6 µM (inconclusive)

CCOC(=O)N/N=C\c1ccc(C)s1
EC50 [3]: > 195 µM (not active)

O=[N+]([O-])c1ccccc1Nc1cccnc1
EC50 [3]: > 195 µM (not active)

O=C(c1cc(-c2ccncc2)nc2ccccc12)N1CCN(c2ccccn2)CC1
EC50 [4]: 1.1 µM (active)
EC50 [5]: 10 µM (active)

CCC(C)NCCOCCOc1ccc(F)cc1 (stereo not drawn)
EC50 [4]: 0.806 µM (active)
EC50 [5]: 10.7 µM (active)

C#CCCCO/N=C1/C[C@@H](O)[C@@H](O)[C@@H]2[C@@H]3C(=O)N(C[C@@H]4CCCO4)C(=O)[C@H]3CC[C@@H]12
AC50 [1]: 3.98 µM (inconclusive)

C=CCNCCOCCOc1ccc(C)cc1[N+](=O)[O-]
AC50 [1]: 12.6 µM (inconclusive)

Nc1c2c(nc3ccccc13)CSCC2
EC50 [4]: 3.33 µM (active)
EC50 [5]: > 30 µM (not active)

CCOC(=O)CCCNS(=O)(=O)c1c(C)ccc2nsnc12
EC50 [3]: 53.4 µM (active)

CCCCC(=O)Nc1ccc(C(=O)NCCc2ccc(S(N)(=O)=O)cc2)cc1
EC50 [3]: > 195 µM (not active)

NC(=S)N/N=C/c1cc([N+](=O)[O-])ccc1OCCOc1ccccc1
EC50 [3]: 52.6 µM (active)

CC(=O)N=C(Nc1ccc2ccccc2c1)Nc1nc(C)cc(C)n1
EC50 [3]: 146 µM (active)

CCN(CC)C(=O)c1cnc2ccc(S(=O)(=O)Nc3cc(C)cc(C)c3)cc2c1O
EC50 [6]: 4.85 µM (active)

CCOC(=O)Cn1cc(C=C2C(=O)N(C)C(=O)N(C)C2=O)c2ccccc21
EC50 [6]: 5.34 µM (active)

O=C(CNS(=O)(=O)c1ccccc1F)Nc1ccc(N2CCOCC2)cc1
EC50 [3]: > 195 µM (not active)

Cc1cc(NC(=O)CN2C(=O)c3ccccc3C2=O)no1
EC50 [7]: > 150 µM (not active)
EC50 [8]: > 150 µM (not active)
EC50 [9]: > 150 µM (not active)

CCOC(=O)CC1C(=O)NCCN1S(=O)(=O)c1ccc(Cl)c(Cl)c1 (stereo not drawn)
AC50 [1]: 12.6 µM (inconclusive)

O=C1N=C(N2CCCC2)S/C1=C\C=C\c1ccccc1
EC50 [3]: < 0.16 µM (active)

Cc1ccc2c(CC(=O)Nc3sccc3C(N)=O)coc2c1
EC50 [6]: > 53 µM (inactive)

NC(=S)N/N=C/c1ccc2ccccc2c1
EC50 [4]: 0.858 µM (active)
EC50 [5]: > 60 µM (not active)

O=C(COc1c(Cl)cccc1Cl)Nc1ccccc1N1CCCC1
EC50 [7]: 16.4 µM (active)
EC50 [8]: 16.1 µM (active)
EC50 [9]: > 150 µM (not active)

C=CCn1c(NCc2cc(Cl)ccc2O)nc2ccccc21
EC50 [7]: > 150 µM (not active)
EC50 [8]: > 150 µM (not active)
EC50 [9]: > 150 µM (not active)

NC(=O)NC(=O)CSc1nc2sc(-c3ccccc3)cc2c(=O)n1-c1ccccc1
EC50 [7]: 2.21 µM (active)
EC50 [9]: 4.54 µM (active)

CO[C@@H]1COC(=O)C/C=C\[C@@H](C)[C@@H]2C=C[C@H](O)[C@@H](COC(=O)CCC[C@H]1C)O2
AC50 [1]: 3.98 µM (inconclusive)

Cn1nnc2cc(C(=O)NC(C)(C)C)ccc21
EC50 [3]: 83.9 µM (active)

O=C(c1cccs1)N1N=C(c2ccccc2)CC1c1ccccc1O (stereo not drawn)
EC50 [4]: 2.84 µM (active)
EC50 [5]: > 60 µM (not active)

Cc1cc(/C=C2\SC(=S)NC2=O)c(C)n1-c1cccc(O)c1
EC50 [7]: 6.9 µM (active)
EC50 [9]: 49.7 µM (inconclusive)

CC(C)Sc1cc(N2CCCC2)nc(-c2ccc(F)cc2)n1
EC50 [7]: 6.81 µM (active)
EC50 [8]: 10.9 µM (active)
EC50 [9]: 23.8 µM (active)
AC50 [1]: 17.8 µM (inconclusive)
AC50 [2]: 7.94 µM (inconclusive)

CC(Nc1nc(-c2ccccc2O)nc2ccccc12)c1ccccc1 (stereo not drawn)
EC50 [7]: 9.99 µM (active)
EC50 [8]: 8.55 µM (active)
EC50 [9]: > 150 µM (not active)

N#Cc1c(-c2ccccc2)nc(SCc2ccc(Cl)cc2)[nH]c1=O
EC50 [8]: 5.41 µM (active)

C=CCn1c(=O)c(C(=O)NCCN(CC)CC)c(O)c2ccccc21
AC50 [2]: 8.91 µM (inconclusive)

Cc1sc(N)c(C(=O)c2cccc(C(F)(F)F)c2)c1C
AC50 [1]: 12.6 µM (inconclusive)

O=c1c2ccc([N+](=O)[O-])cc2ncn1CCOc1cccc(Br)c1
EC50 [4]: 0.212 µM (active)
EC50 [5]: > 60 µM (not active)

Cc1ccc(S(=O)(=O)Nc2cc(C)c(O)c(S(=O)(=O)c3ccc(C)cc3)c2)cc1
EC50 [7]: 39.6 µM (active)
EC50 [8]: > 150 µM (not active)
EC50 [9]: > 150 µM (not active)

CN1CCC(N(C)CC(=O)Nc2cccc(Oc3ccccc3)c2)CC1
EC50 [4]: < 0.1 µM (active)
EC50 [5]: > 60 µM (not active)

COc1ccc(-c2ccc3c(n2)CCCN3C[C@H](O)CN2CCCc3nc(-c4ccc(Br)cc4)ccc32)cc1
AC50 [2]: 3.98 µM (inconclusive) and 3.16 µM (inconclusive)

C[C@H](NC(=O)c1ccc(Cl)c(Cl)c1)c1ccc(-c2ccccc2)cc1
AC50 [2]: 3.16 µM (inconclusive)

Cc1ccc(C)c(NC(=O)NCc2ccc(Cl)cc2)c1
AC50 [1]: 2.51 µM (inconclusive)

CC(C)Oc1ccc2c(=O)c3cc(C(=O)O)ccc3oc2c1
AC50 [2]: 31.6 µM (inconclusive)

Fc1ccc(-c2[nH]ncc2-c2nnnn2-c2ccccc2)c(F)c1
AC50 [1]: 10 µM (inconclusive)

Oc1ccc2ccccc2c1CN1CCCCC1
EC50 [6]: 3.84 µM (active)

COc1ccc(-c2noc(-c3ccccc3-c3ccccc3)n2)cc1
EC50 [7]: 32.9 µM (active)
EC50 [8]: 17.8 µM (active)
EC50 [9]: > 150 µM (not active)

O=C(/C=C/c1ccc([N+](=O)[O-])cc1)Oc1ccc(/C=N/NC(=O)c2ccncc2)cc1
EC50 [4]: 9.25 µM (active)
EC50 [5]: > 60 µM (not active)

CN1CCN(c2ccncc2S(=O)(=O)N2CCN(C)CC2)CC1
AC50 [1]: 3.16 µM (inconclusive)

O=C(Cc1ccccc1)NN1C(=O)/C(=C/c2c[nH]c3ccccc23)SC1=S
EC50 [7]: 20.4 µM (active)
EC50 [8]: > 150 µM (not active)
EC50 [9]: > 150 µM (not active)

C=CCSc1nc2ccccc2c(=O)n1Cc1ccccc1
EC50 [7]: 15.7 µM (active)
EC50 [8]: > 150 µM (not active)
EC50 [9]: 99.4 µM (active)

CCc1ccc(NC(S)=NC2CC3CCCC(C2)N3Cc2cccs2)cc1 (stereo not drawn)
EC50 [4]: 5.85 µM (active)
EC50 [5]: > 60 µM (not active)

Nc1c(C(=O)NCc2ccccc2)sc2nc3c(cc12)C(=O)CCC3
AC50 [1]: 25.1 µM (inconclusive)
AC50 [2]: 1.41 µM (inconclusive)

CC(C)(C)c1cccc(Oc2nn[nH]n2)c1
AC50 [1]: 22.4 µM (inconclusive)
AC50 [2]: 25.1 µM (inconclusive)

N#Cc1c(O)nc(SCc2ccc(Cl)cc2)nc1-c1ccccc1
EC50 [7]: 11.4 µM (active)
EC50 [9]: 14.1 µM (active)

Cc1cc(C(F)(F)F)c(C#N)c(SCC(=O)Nc2nc3cc(Br)ccc3s2)n1
EC50 [7]: 3.48 µM (active)
EC50 [8]: 17.5 µM (active)
EC50 [9]: > 150 µM (not active)
